Six compounds from patent EP2326172B1, “ANTIFUNGAL AGENTS” (Scynexis, Inc., priority 2008, dated 2010) can be followed below.

T1 sequence (O13428 1-1897): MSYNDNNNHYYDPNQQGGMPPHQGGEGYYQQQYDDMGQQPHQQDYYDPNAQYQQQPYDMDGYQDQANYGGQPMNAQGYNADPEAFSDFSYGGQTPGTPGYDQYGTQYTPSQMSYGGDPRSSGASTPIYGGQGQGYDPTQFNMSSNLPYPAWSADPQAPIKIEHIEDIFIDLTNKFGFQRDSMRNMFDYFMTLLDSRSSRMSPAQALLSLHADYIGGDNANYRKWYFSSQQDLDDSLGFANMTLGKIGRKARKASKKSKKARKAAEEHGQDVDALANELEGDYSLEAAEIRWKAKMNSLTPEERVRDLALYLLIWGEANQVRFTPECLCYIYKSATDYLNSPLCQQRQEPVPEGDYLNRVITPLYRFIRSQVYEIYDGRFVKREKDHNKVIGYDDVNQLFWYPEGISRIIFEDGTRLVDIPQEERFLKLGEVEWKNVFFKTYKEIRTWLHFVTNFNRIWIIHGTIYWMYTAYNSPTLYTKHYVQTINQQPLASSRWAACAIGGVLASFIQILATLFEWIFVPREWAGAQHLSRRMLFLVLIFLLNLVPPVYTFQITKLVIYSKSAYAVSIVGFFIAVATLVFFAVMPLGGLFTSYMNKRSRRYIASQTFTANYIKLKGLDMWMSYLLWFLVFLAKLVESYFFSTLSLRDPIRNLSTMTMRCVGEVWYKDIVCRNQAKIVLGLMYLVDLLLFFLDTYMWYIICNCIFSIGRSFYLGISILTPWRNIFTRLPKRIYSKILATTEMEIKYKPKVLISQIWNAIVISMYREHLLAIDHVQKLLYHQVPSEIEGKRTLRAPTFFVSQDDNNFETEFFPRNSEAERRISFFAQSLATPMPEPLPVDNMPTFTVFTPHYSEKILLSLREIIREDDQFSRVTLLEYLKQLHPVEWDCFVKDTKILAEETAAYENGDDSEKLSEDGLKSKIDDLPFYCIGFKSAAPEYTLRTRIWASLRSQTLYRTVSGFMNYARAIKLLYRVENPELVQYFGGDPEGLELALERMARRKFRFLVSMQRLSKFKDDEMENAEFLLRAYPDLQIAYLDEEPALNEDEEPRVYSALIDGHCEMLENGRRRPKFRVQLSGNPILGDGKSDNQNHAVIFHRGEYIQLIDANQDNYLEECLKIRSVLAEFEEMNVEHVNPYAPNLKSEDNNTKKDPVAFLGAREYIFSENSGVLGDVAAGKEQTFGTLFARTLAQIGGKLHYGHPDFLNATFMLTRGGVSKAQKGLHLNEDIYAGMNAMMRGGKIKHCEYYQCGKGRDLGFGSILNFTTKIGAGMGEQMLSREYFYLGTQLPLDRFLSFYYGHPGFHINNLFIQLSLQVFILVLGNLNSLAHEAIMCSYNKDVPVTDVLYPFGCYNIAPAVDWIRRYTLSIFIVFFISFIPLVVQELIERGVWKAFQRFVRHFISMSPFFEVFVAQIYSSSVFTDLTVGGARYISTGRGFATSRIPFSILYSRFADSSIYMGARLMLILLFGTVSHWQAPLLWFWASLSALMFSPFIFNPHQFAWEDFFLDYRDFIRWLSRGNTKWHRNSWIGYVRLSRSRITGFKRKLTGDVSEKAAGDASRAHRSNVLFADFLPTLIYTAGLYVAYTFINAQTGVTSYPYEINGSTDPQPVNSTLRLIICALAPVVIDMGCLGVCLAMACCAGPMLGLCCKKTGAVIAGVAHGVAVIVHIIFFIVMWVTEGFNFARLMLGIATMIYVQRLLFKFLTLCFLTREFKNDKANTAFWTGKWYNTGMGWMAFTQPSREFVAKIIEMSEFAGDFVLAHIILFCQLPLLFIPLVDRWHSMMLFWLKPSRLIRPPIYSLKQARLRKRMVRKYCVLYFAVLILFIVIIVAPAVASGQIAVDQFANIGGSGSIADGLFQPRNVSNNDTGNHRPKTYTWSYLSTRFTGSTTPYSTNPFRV
T1 sequence (O42825 1-195 partner limits assumed): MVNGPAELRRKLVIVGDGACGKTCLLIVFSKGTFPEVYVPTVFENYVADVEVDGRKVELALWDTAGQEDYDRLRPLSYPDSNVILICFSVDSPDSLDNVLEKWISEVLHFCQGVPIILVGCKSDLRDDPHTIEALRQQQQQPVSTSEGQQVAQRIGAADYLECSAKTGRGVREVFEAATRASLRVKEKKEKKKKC

This test addresses T1, glucan synthase (GS) (Candida albicans, UniProt O13428).
T1 construct: Extraction of GS activity from membranes was performed at a protein concentration of 5 mg/mL in extraction buffer; endogenous in cells; host or cells: Candida albicans MY1055 (membrane fraction, detergent extract, product entrapment)
As to the kind of experiment: Glucan synthase inhibition (polymerization assay, 96-well, 3H-UDPG incorporation). It is filed as biochemical. To be noted: glucan synthase prepared from Candida albicans MY1055; 60 min incubation at 22°C; read-out: Candida Albicans GS IC50 (ng/mL) (converted). The method, then:
The in vitro evaluation of glucan synthase inhibitory activity of compounds was measured in a polymerization assay in 96-well format. Each well contained 100 µL of ^3H-UDPG at 0.5 mM (6000 to 8000 dpm/nmol), 50 mM HEPES pH 7.5 (Sigma), 10% w/v glycerol (Sigma), 1.5 mg/mL bovine serum albumin (Sigma A 9647. Lot 44H0190), 25 mM KF (Fisher), 1 mM EDTA (Gibco ULTRAPURE), 25 µM GTP-γ-S, enzyme sufficient to give 3 to 6 nmoles incorporation during the 60 min incubation at 22°C, and test compound added from wells in 3-fold serial dilutions in 100% DMSO (1 µL/well). The reaction was stopped by the addition of 100 µL of 20% trichloroacetic acid. Plates were chilled for a minimum of 10 min, and precipitated glucan collected by filtration on GF/C plates (Packard UNIFILTER®-96), washed with 5 cycles of water (about 1 mL/well each cycle) using a Packard FILTERMATE HARVESTER. 40 µL/well scintillation fluid (Packard ULTIMA GOLD TM-XR) was added and the sealed plates counted in a WALLAC BETA counter in top-counting mode at an efficiency of approximately 40%.
Stock solutions were stored at 10 mg/mL in DMSO at -20°C. For each new enzyme preparation, the initial titration performed started at 1 mg/mL, which was prepared by making a 10-fold dilution in DMSO (5 µL to 50 µL). 40 µL of this stock was placed in column 12 of a round-bottomed 96-well microtiter plate. 40 µL DMSO was added to columns 1 to 11 in the same row and ten 3-fold serial dilutions performed, by transferring 20 µL from column 12 to column 11 etc., with 4 mixings before each transfer. No test compound was transferred to from column 2 to column 1. Duplicate aliquots of 1 µL of all 12 dilutions were then transferred to the side walls of a 96-well Bioblock 1.1 mL plate (Fisher brand) to create two rows.
Graphs of the primary data were created in PRISM software (the average of two determinations) using PRISM's curve fitting program (sigmoidal dose response non-linear regression). The amount of compound required to inhibit glucan synthase activity by 50% in this assay (IC50 - ng/mL) was calculated.
Routine analysis was performed with glucan synthase (GS) prepared from Candida albicans MY1055 by the following procedure: MY1055 was grown in 10 liters YPD medium (10 g yeast extract, 20 g tryptone, 20 g glucose per liter) with vigorous shaking at 30°C, to early stationary phase. Cells were harvested by centrifugation, the pellet was washed and frozen at -70°C until breakage. Thawed pellets were shaken with an equal volume of breakage buffer (50 mM HEPES pH 7.4, 10% glycerol, 1 mM EDTA, 1 mM PMSF, 1mM DTT) and 4 times their weight of 0.5 mm acid washed glass beads for 2 hours at 4°C. Extent of breakage was assessed visually at 40x magnification. After low speed centrifugation to remove cell debris, the supernatant was centrifuged at 100,000 x g for 60 min. to separate membranes plus ribosomes from cytoplasmic components. Membranes were further washed two additional times with breakage buffer using the same centrifugation conditions and finally suspended in breakage buffer at 25 to 30 mg/mL protein (Biorad) for storage at -70°C. Extraction of GS activity from membranes was performed at a protein concentration of 5 mg/mL in extraction buffer (50mM NaPO4 pH 7.5, 0.1 M KCl, 0.1M Na citrate, 20% glycerol, 5 µM GTP-γ-S, 1mM DTT, 1 mM PMSF, 3 µg/mL pepstatin) plus 0.25% W1 by gentle mixing at 4°C for 60 min, followed by centrifugation at 100,000 x g for 60 min. After centrifugation, clear supernatant was removed from a pellet consisting of a hard layer usually with small amounts of gelatinous unextracted membranes above it.
Trapping was initiated immediately by 5-fold dilution in trapping buffer (50 mM HEPES pH 7.5, 10 mM KF, 1 mM EDTA, 2 mg/mL BSA) plus 2.5 mM UDPG and 10µM GTP-γ-S. After incubation at 25°C for 60 to 90 minutes, glucan was harvested by low speed centrifugation (3,000 x g, 10 min). […]
For the compound `CC(C)[C@@H](C)[C@@]1(C)CC[C@]2(C)[C@H]3CC[C@@H]4[C@@]5(COC[C@@]4(C)[C@@H](OC[C@](C)(N)C(C)C)[C@H](n4ncnc4-c4cccnc4)C5)C3=CC[C@@]2(C)[C@@H]1C(=O)O` [Example 182, (1S,4aR,6aS,7R,8R,10aR,10bR,12aR,14R,15R)-15-[[(2R)-2-amino-2,3-dimethylbutyl]oxy]-8-[(1R)-1,2-dimethylpropyl]-14-[5-(3-pyridinyl)-1H-1,2,4-triazol-1-yl]-1,6,6a,7,8,9,10,10a,10b,11,12,12a-dodecahydro-1,6a,8,10a-tetramethyl-4H-1,4a-propano-2H-phenanthro[1,2-c]pyran-7-carboxylic acid], the IC50 is 5.59 nM.

Take `CC(C)[C@@H](C)[C@@]1(C)CC[C@]2(C)[C@H]3CC[C@@H]4[C@@]5(COC[C@@]4(C)[C@@H](OC[C@](C)(N)C(C)C)[C@H](n4ncnc4-c4ccncn4)C5)C3=CC[C@@]2(C)[C@@H]1C(=O)O` [Example 190, (1S,4aR,6aS,7R,8R,10aR,10bR,12aR,14R,15R)-15-[[(2R)-2-amino-2,3-dimethylbutyl]oxy]-8-[(1R)-1,2-dimethylpropyl]-14-[5-(4-pyrimidinyl)-1H-1,2,4-triazol-1-yl]-1,6,6a,7,8,9,10,10a,10b,11,12,12a-dodecahydro-1,6a,8,10a-tetramethyl-4H-1,4a-propano-2H-phenanthro[1,2-c]pyran-7-carboxylic acid]: the IC50 was 4.18 nM.

`CC(C)[C@@H](C)[C@@]1(C)CC[C@]2(C)[C@H]3CC[C@@H]4[C@@]5(COC[C@@]4(C)[C@@H](OC[C@](C)(N)C(C)(C)C)[C@H](n4ncnc4-c4ccnnc4)C5)C3=CC[C@@]2(C)[C@@H]1C(=O)O` [Example 202, (1S,4aR,6aS,7R,8R,10aR,10bR,12aR,14R,15R)-15-[[(2R)-2-amino-2,3,3-trimethylbutyl]oxy]-8-[(1R)-1,2-dimethylpropyl]-14-[5-(4-pyridazinyl)-1H-1,2,4-triazol-1-yl]-1,6,6a,7,8,9,10,10a,10b,11,12,12a-dodecahydro-1,6a,8,10a-tetramethyl-4H-1,4a-propano-2H-phenanthro[1,2-c]pyran-7-carboxylic acid]: the IC50 is 0.274 nM.

Turning to `CC(C)[C@@H](C)[C@@]1(C)CC[C@]2(C)[C@H]3CC[C@@H]4[C@@]5(COC[C@@]4(C)[C@@H](OC[C@](C)(N)C(C)(C)C)[C@H](n4ncnc4-c4ccncc4F)C5)C3=CC[C@@]2(C)[C@@H]1C(=O)O` [Example 208, (1S,4aR,6aS,7R,8R,10aR,10bR,12aR,14R,15R)-15-[[(2R)-2-amino-2,3,3-trimethylbutyl]oxy]-8-[(1R)-1,2-dimethylpropyl]-14-[5-(3-fluoro-4-pyridinyl)-1H-1,2,4-triazol-1-yl]-1,6,6a,7,8,9,10,10a,10b,11,12,12a-dodecahydro-1,6a,8,10a-tetramethyl-4H-1,4a-propano-2H-phenanthro[1,2-c]pyran-7-carboxylic acid], the IC50 is 0.936 nM.

Turning to `CC(C)[C@@H](C)[C@@]1(C)CC[C@]2(C)[C@H]3CC[C@@H]4[C@@]5(COC[C@@]4(C)[C@@H](OCC4(N)CCOCC4)[C@H](n4ncnc4-c4ccncn4)C5)C3=CC[C@@]2(C)[C@@H]1C(=O)O` [Example 256, (1S,4aR,6aS,7R,8R,10aR,10bR,12aR,14R,15R)-15-[(4-aminotetrahydro-2H-pyran-4-yl)methoxy]-8-[(1R)-1,2-dimethylpropyl]-14-[5-(4-pyrimidinyl)-1H-1,2,4-triazol-1-yl]-1,6,6a,7,8,9,10,10a,10b,11,12,12a-dodecahydro-1,6a,8,10a-tetramethyl-4H-1,4a-propano-2H-phenanthro[1,2-c]pyran-7-carboxylic acid], the IC50 was 6.84 nM.

`CC(C)[C@@H](C)[C@@]1(C)CC[C@]2(C)[C@H]3CC[C@@H]4[C@@]5(COC[C@@]4(C)[C@@H](OC[C@](C)(N)C(C)(C)C)[C@H](n4ncnc4-c4ccc[n+]([O-])c4)C5)C3=CC[C@@]2(C)[C@@H]1C(=O)O` [Example 261, (1S,4aR,6aS,7R,8R,10aR,10bR,12aR,14R,15R)-15-[[(2R)-2-amino-2,3,3-trimethylbutyl]oxy]-8-[(1R)-1,2-dimethylpropyl]-14-[5-(1-oxido-3-pyridinyl)-1H-1,2,4-triazol-1-yl]-1,6,6a,7,8,9,10,10a,10b,11,12,12a-dodecahydro-1,6a,8,10a-tetramethyl-4H-1,4a-propano-2H-phenanthro[1,2-c]pyran-7-carboxylic acid]: the IC50 is 2.68 nM.
